Results from PubChem BioAssay (NCI).
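Method: 48-hour compound exposure of cells in 96-well plates, five concentrations, linear interpolation of endpoints. Abbreviation: GI50, concentration required for 50% inhibition of growth. Definition used: TGI = concentration required for complete inhibition of growth.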

Experiments:
Assay in all cases: inhibition of tumour cell growth, NCI panel, 48 h
[1] = test system: SNB-19 CNS
[2] = test system: HL-60(TB) leukemia
[3] = test system: HOP-92 NSCLC
[4] = test system: COLO 205 colon
[5] = test system: UO-31 renal
[6] = test system: RPMI-8226 leukemia
[7] = test system: ACHN renal
[8] = test system: SR leukemia
[9] = test system: IGROV1 ovarian
[10] = test system: KM20L2 colon

| Compound | GI50 [1] | TGI [1] | GI50 [2] | TGI [2] | GI50 [3] | TGI [3] | GI50 [4] | TGI [4] | GI50 [5] | TGI [5] | GI50 [6] | TGI [6] | GI50 [7] | TGI [7] | GI50 [8] | TGI [8] | GI50 [9] | TGI [9] | TGI [10] |
| --- | --- | --- | --- | --- | --- | --- | --- | --- | --- | --- | --- | --- | --- | --- | --- | --- | --- | --- | --- |
| CNC(=O)c1nn(C)c2c1C(C)(C)Cc1cnc(Nc3ccc(N4CCN(C)CC4)cc3)nc1-2 | 0.322 µM | > 10 µM | 0.695 µM | > 10 µM | 0.174 µM | > 2.35 µM | 0.313 µM | 3.12 µM | 0.169 µM | 2.39 µM | 0.475 µM | > 3.98 µM | 0.424 µM | 8.62 µM | 0.452 µM | > 5.71 µM | 0.182 µM | 1.6 µM | – |
| O=C1OCC2=C1C(c1ccccc1)c1cc3c(cc1N2CCO)OCO3 (stereo not drawn) | 15.6 µM | > 50 µM | 3.46 µM | > 50 µM | 13.9 µM | > 50 µM | 2.71 µM | 17.1 µM | 27.8 µM | > 50 µM | 3.09 µM | > 50 µM | 30.5 µM | > 50 µM | 3.49 µM | > 50 µM | 2.91 µM | > 50 µM | – |
| O=c1oc2ccccc2[n+]([O-])c1-c1ccccc1 | – | > 100 µM | – | > 100 µM | – | > 100 µM | – | > 100 µM | – | > 100 µM | – | > 100 µM | – | > 100 µM | – | – | – | > 100 µM | > 100 µM |
| CC(=O)OCC1OC(N2C(=O)C(=O)c3ccccc32)C(OC(C)=O)C(OC(C)=O)C1OC(C)=O (stereo not drawn) | – | > 100 µM | – | – | – | > 100 µM | – | > 100 µM | – | > 100 µM | – | > 100 µM | – | > 100 µM | – | > 100 µM | – | > 100 µM | > 100 µM |
| CSc1nnc(COc2ccc(Cl)cc2)o1 | – | > 100 µM | – | – | – | – | – | > 100 µM | – | > 100 µM | – | – | – | > 100 µM | – | – | – | > 100 µM | > 100 µM |
| O=C(O)[C@@H](Cc1ccc2ccccc2c1)NC(=O)n1c2ccccc2c2ccccc21 | 3.57 µM | 17 µM | 3.3 µM | 18.3 µM | 1.33 µM | 7.74 µM | 2.55 µM | 5.29 µM | 5.18 µM | 45.5 µM | 3.83 µM | 31.7 µM | 4.83 µM | 93.6 µM | 4.12 µM | > 100 µM | 4.06 µM | 80.7 µM | – |
